Measured values reported in publication PMC12593154, “Overcoming Solubility Challenges: Micronization of Berberine Using the GAS Antisolvent Technique” (ACS Omega, 2025).

Tests used:
[1] = Particle size by scanning electron microscopy (length and width of 200 particles); format: physicochemical; settings: SEM, GAS at 35 °C, 80 bar
Description: Berberine was micronized using the antisolvent gas technique based on the studies of Pessoa et al. (2019) and Sakata et al. (2021). First, the solution was prepared at 1 mg/mL with the selected solvents and then added to the cell. The CO2 was introduced into the cell at a flow rate of 10 and 20 mL/min until the pressure reached 80 bar, with an operating temperature of 35 °C. The mixture was held at 80 bar for 10 min for homogenization. The solvent was removed by passing CO2 at constant pressure with open inlet and outlet valves. Once all the solvent had been removed, the reaction cell was depressurized, and the particles were collected.
Morphology and particle size were examined by scanning electron microscopy (JEOL JSM-6390LV.). Length and width measurements of 200 particles were obtained for each sample using Size Meter Software (version 1.1).

[2] = Solubility analysis of berberine in organic solvents (excess compound, 24 h agitation, spectrophotometer); format: physicochemical; settings: organic solvent or mixture, thermodynamic from solid
Description: The solubility study of the compound in different solvents was carried out. Acetone, ethanol, methanol, 1-propanol, 1-butanol, and dichloromethane were used. An excess compound was added to 100 mL of solvent at 25 and 35 °C. The solution was agitated at 100 rpm for 24 h to achieve solid–liquid equilibrium. It was then left for 2 h without stirring to allow the sedimentation of the insolubilized particles. An aliquot was taken and analyzed with a spectrophotometer.

[3] = listed as Nonmicronized berberine

COc1ccc2cc3[n+](cc2c1OC)CCc1cc2c(cc1-3)OCO2 [Berberine, Berberine chloride]
particle size, length [1, 3]: 13.24 μm | particle size, width [1, 3]: 6.39 μm | particle size, length ([1]; listed as Raw): 13.24 ± 8.66 μm | particle size, width ([1]; listed as Raw): 6.39 ± 5.39 μm | solubility at 24 h ([2]; 1-butanol, 25 °C): 5.4 ± 0.578 µg/mL | solubility at 24 h ([2]; 1-propanol, 25 °C): 3 ± 0.168 µg/mL | solubility at 24 h ([2]; 1-propanol, 35 °C): 4.33 ± 0.082 µg/mL | solubility at 24 h ([2]; acetone, 25 °C): 0.16 ± 0.004 µg/mL | solubility at 24 h ([2]; acetone, 35 °C): 0.2 ± 0.007 µg/mL | solubility at 24 h ([2]; dichloromethane, 25 °C): 1.27 ± 0.032 µg/mL | solubility at 24 h ([2]; dichloromethane, 35 °C): 3.47 ± 0.091 µg/mL | solubility at 24 h ([2]; ethanol, 25 °C): 2.82 ± 0.086 µg/mL | solubility at 24 h ([2]; ethanol, 35 °C): 4.57 ± 0.254 µg/mL | solubility at 24 h ([2]; methanol, 25 °C): 15.4 ± 1.61 µg/mL | solubility at 24 h ([2]; methanol, 35 °C): 35 ± 1.98 µg/mL
